Tests used:
[1] = biological target: T1, MTHFD2 recombinant human enzyme (Homo sapiens, UniProt P13995); experiment: MTHFD2 inhibition assay (NAD(P)H-Glo luminescence); conditions: for MTHFD1/MTHFD2 IC50 ratio: selectivity of MTHFD2 inhibition over MTHFD1, band
T1 sequence (P13995 36-350): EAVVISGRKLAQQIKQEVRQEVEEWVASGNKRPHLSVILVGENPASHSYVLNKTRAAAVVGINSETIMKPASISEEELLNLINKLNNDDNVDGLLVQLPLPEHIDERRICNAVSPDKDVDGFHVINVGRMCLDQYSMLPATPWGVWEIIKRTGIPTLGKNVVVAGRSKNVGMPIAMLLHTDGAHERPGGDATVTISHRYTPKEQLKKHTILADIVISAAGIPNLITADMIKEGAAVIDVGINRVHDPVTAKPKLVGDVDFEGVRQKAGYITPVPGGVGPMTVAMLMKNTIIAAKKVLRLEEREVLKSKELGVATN

[2] = biological target: T2, MTHFD1 recombinant human enzyme (Homo sapiens, UniProt P11586); experiment: MTHFD1 inhibition assay (NAD(P)H-Glo luminescence); conditions: MTHFD1 IC50, recombinant human enzyme 200 nM, NADP, band
T2 sequence (P11586 2-291 limits assumed): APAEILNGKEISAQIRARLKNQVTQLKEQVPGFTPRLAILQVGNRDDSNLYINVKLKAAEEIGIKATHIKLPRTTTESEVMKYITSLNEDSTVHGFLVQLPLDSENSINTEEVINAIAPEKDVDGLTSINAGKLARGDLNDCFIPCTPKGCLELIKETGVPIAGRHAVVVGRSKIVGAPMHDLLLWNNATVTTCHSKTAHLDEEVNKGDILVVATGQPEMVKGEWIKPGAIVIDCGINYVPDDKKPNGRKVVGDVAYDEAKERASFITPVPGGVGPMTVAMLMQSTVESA

SMILES	IC50 [1] [µM]	MTHFD1/MTHFD2 IC50 ratio [1]	IC50 [2] [µM]
COC[C@H]1CN(c2cc(C)c3c4c(c(=O)oc3c2C)CN(C(=O)c2cc(C(=O)NS(=O)(=O)N3CCCC3)cc(OC3CCC3)c2F)CC4)CCN1C [Example 166, (R)-3-cyclobutoxy-4-fluoro-5-(8-(3-(methoxymethyl)-4-methylpiperazin-1-yl)-7,10-dimethyl-5-oxo-1,3,4,5-tetrahydro-2H-chromeno[3,4-c]pyridine-3-carbonyl)-N-(pyrrolidin-1-ylsulfonyl)benzamide]	0.1 to 1	G (^ 3 to 9.0)	> 5
COC[C@H]1CN(c2cc(C)c3c4c(c(=O)oc3c2C)CN(C(=O)c2ccc(C(=O)NS(=O)(=O)N(C)C)c(N3CCCC3)c2F)CC4)CCN1C [Example 70, (R)-N-(N,N-dimethylsulfamoyl)-3-fluoro-4-(8-(3-(methoxymethyl)-4-methylpiperazin-1-yl)-7,10-dimethyl-5-oxo-1,3,4,5-tetrahydro-2H-chromeno[3,4-c]pyridine-3-carbonyl)-2-(pyrrolidin-1-yl)benzamide]	0.001 to 0.01	G (^ 3 to 9.0)	0.01 to 0.1
COC[C@H]1CN(c2cc(C)c3c4c(c(=O)oc3c2C)CN(C(=O)c2ccc(OC3CCC3)c(C(=O)NS(=O)(=O)N3CCCC3)c2)CC4)CCN1C [Example 163, (R)-2-cyclobutoxy-5-(8-(3-(methoxymethyl)-4-methylpiperazin-1-yl)-7,10-dimethyl-5-oxo-1,3,4,5-tetrahydro-2H-chromeno[3,4-c]pyridine-3-carbonyl)-N-(pyrrolidin-1-ylsulfonyl)benzamide]	0.1 to 1	H (>9.0 to 30)	> 5
COC[C@H]1CN(c2cc(C)c3c4c(c(=O)oc3c2C)CN(C(=O)c2cc(OC)c(C(=O)NS(=O)(=O)N(C)C)c(N3CCCC3)c2)CC4)CCN1C [Example 119, (R)-N-(N,N-dimethylsulfamoyl)-2-methoxy-4-(8-(3-(methoxymethyl)-4-methylpiperazin-1-yl)-7,10-dimethyl-5-oxo-1,3,4,5-tetrahydro-2H-chromeno[3,4-c]pyridine-3-carbonyl)-6-(pyrrolidin-1-yl)benzamide]	0.01 to 0.1	G (^ 3 to 9.0)	0.1 to 1
COC[C@H]1CN(c2ccc3c4c(c(=O)oc3c2C)CN(C(=O)c2ccc(C(=O)NS(=O)(=O)N3CCCC3)c(OC3CCC3)c2F)CC4)CCN1C1CC1 [Example 173, (R)-2-cyclobutoxy-4-(8-(4-cyclopropyl-3-(methoxymethyl)piperazin-1-yl)-7-methyl-5-oxo-1,3,4,5-tetrahydro-2H-chromeno[3,4-c]pyridine-3-carbonyl)-3-fluoro-N-(pyrrolidin-1-ylsulfonyl)benzamide]	1 to 5	F (<3)	1 to 5
COC[C@H]1CN(c2cc(C)c3c4c(c(=O)oc3c2C)CN(C(=O)c2cc(OC3CCC3)cc(C(=O)NS(=O)(=O)N3CCCC3)c2)CC4)CCN1C [Example 164, (R)-3-cyclobutoxy-5-(8-(3-(methoxymethyl)-4-methylpiperazin-1-yl)-7,10-dimethyl-5-oxo-1,3,4,5-tetrahydro-2H-chromeno[3,4-c]pyridine-3-carbonyl)-N-(pyrrolidin-1-ylsulfonyl)benzamide]	0.1 to 1	H (>9.0 to 30)	> 5
COC[C@H]1CN(c2cc(C)c3c4c(c(=O)oc3c2C)CN(C(=O)c2ccc(C(=O)NS(=O)(=O)N3CCCC3)c(N3C5CCC3CC5)c2F)CC4)CCN1C [Example 97, (R)-2-(7-azabicyclo[2.2.1]heptan-7-yl)-3-fluoro-4-(8-(3-(methoxymethyl)-4-methylpiperazin-1-yl)-7,10-dimethyl-5-oxo-1,3,4,5-tetrahydro-2H-chromeno[3,4-c]pyridine-3-carbonyl)-N-(pyrrolidin-1-ylsulfonyl)benzamide]	0.01 to 0.1	F (<3)	0.01 to 0.1
COC[C@H]1CN(c2ccc3c4c(c(=O)oc3c2)CN(C(=O)c2cc(N(C)C)c(C(=O)NS(=O)(=O)N3C5CCC3CC5)cc2F)CC4)CCN1C [Example 191, (R)-N-((7-azabicyclo[2.2.1]heptan-7-yl)sulfonyl)-2-(dimethylamino)-5-fluoro-4-(8-(3-(methoxymethyl)-4-methylpiperazin-1-yl)-5-oxo-1,3,4,5-tetrahydro-2H-chromeno[3,4-c]pyridine-3-carbonyl)benzamide]	0.1 to 1	G (^ 3 to 9.0)	> 5

Continued, values first:

IC50 [1] [µM]	MTHFD1/MTHFD2 IC50 ratio [1]	IC50 [2] [µM]	SMILES
0.01 to 0.1	J (>30)	0.1 to 1	COC[C@H]1CN(c2cc(C)c3c4c(c(=O)oc3c2C)CN(C(=O)c2cc(N(C)C)c(C(=O)NS(=O)(=O)N3CCC(OC)CC3)cc2F)CC4)CCN1C [Example 289, (R)-2-(dimethylamino)-5-fluoro-4-(8-(3-(methoxymethyl)-4-methylpiperazin-1-yl)-7,10-dimethyl-5-oxo-1,3,4,5-tetrahydro-2H-chromeno[3,4-c]pyridine-3-carbonyl)-N-((4-methoxypiperidin-1-yl)sulfonyl)benzamide]
0.1 to 1	G (^ 3 to 9.0)	0.1 to 1	COC[C@H]1CN(c2ccc3c4c(c(=O)oc3c2C)CN(C(=O)c2ccc(C(=O)NS(=O)(=O)N3CCCC3)c(N(C)C)c2F)CC4)CCN1C [Example 139, (R)-2-(dimethylamino)-3-fluoro-4-(8-(3-(methoxymethyl)-4-methylpiperazin-1-yl)-7-methyl-5-oxo-1,3,4,5-tetrahydro-2H-chromeno[3,4-c]pyridine-3-carbonyl)-N-(pyrrolidin-1-ylsulfonyl)benzamide]
0.001 to 0.01	–	0.1 to 1	CCOc1cc(C(=O)N2CCc3c(c(=O)oc4c(C)c(N5CCN(C)[C@@H](COC)C5)cc(C)c34)C2)c(F)cc1C(=O)NS(=O)(=O)N1CC[C@@H](F)C1 [Example 261, 2-ethoxy-5-fluoro-N-(((R)-3-fluoropyrrolidin-1-yl)sulfonyl)-4-(8-((R)-3-(methoxymethyl)-4-methylpiperazin-1-yl)-7,10-dimethyl-5-oxo-1,3,4,5-tetrahydro-2H-chromeno[3,4-c]pyridine-3-carbonyl)benzamide]
0.01 to 0.1	G (^ 3 to 9.0)	0.01 to 0.1	CCOc1c(C(=O)NS(=O)(=O)N2CC3CC3C2)ccc(C(=O)N2CCc3c(c(=O)oc4c(C)c(N5CCN(C)[C@@H](COC)C5)cc(C)c34)C2)c1F (some centres unmarked) [Example 229]
0.001 to 0.01	G (^ 3 to 9.0)	0.001 to 0.01	COC[C@H]1CN(c2cc(C)c3c4c(c(=O)oc3c2C)CN(C(=O)c2ccc(C(=O)NS(=O)(=O)N(C)C)c(N3CC5CC5C3)c2)CC4)CCN1C (stereo partly drawn) [Example 47, 2-(3-azabicyclo[3.1.0]hexan-3-yl)-N-(N,N-dimethylsulfamoyl)-4-(8-((R)-3-(methoxymethyl)-4-methylpiperazin-1-yl)-7,10-dimethyl-5-oxo-1,3,4,5-tetrahydro-2H-chromeno[3,4-c]pyridine-3-carbonyl)benzamide]
0.01 to 0.1	F (<3)	0.01 to 0.1	COC[C@H]1CN(c2cc(C)c3c4c(c(=O)oc3c2C)CN(C(=O)c2ccc(C(=O)NS(=O)(=O)N3CCCC3)c(N3CC5CC5C3)c2)CC4)CCN1C (stereo partly drawn) [Example 126, 2-(3-azabicyclo[3.1.0]hexan-3-yl)-4-(8-((R)-3-(methoxymethyl)-4-methylpiperazin-1-yl)-7,10-dimethyl-5-oxo-1,3,4,5-tetrahydro-2H-chromeno[3,4-c]pyridine-3-carbonyl)-N-(pyrrolidin-1-ylsulfonyl)benzamide]

Source: patent publication US12662489B2 (Sitryx Therapeutics Limited, priority 2023, dated 2026)
